Among the data in PubChem BioAssay (NCI) are TGI values, retold here.

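Method: 48-hour compound exposure of cells in 96-well plates, five concentrations, linear interpolation of endpoints. At the TGI there is no net growth.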

What all share (experiment): NCI-60 cell line screen, 48 h
Test [1] relates to OVCAR-8 ovarian.
For test [2], the system named is NCI-H522 lung.
In test [3] the test system is HCT-116 colon.
Test [4] relates to MDA-MB-435.
The subject of test [5] is SF-268 CNS.
In test [6] the test system is ACHN renal.
Test [7] has as its system MALME-3M melanoma.
Test [8] relates to HCT-15 colon.
Test [9] concerns SN12C renal.
Test [10] deals with HOP-92 NSCLC.
Test [11] concerns MDA-N.

For `NNC(=O)CNC(=O)CSc1nnc(COc2ccc(Cl)cc2)n1-c1ccccc1`, the TGI in test [1], in [2], in test [3], in test [4], in test [5] and in test [6] was greater than 100 µM each time. For the same molecule, the TGI in test [7], in test [8], in test [9], in [10] and in test [11] was greater than 100 µM throughout.

Turning to `Cc1nc2c(o1)C(=O)c1ccccc1/C2=N/c1ccccn1`, the TGI in test [1] was determined as 31.1 µM; in test [2], 35.9 µM; in [3] it was 41.8 µM; in test [4] it was 31.9 µM; in test [5] it was 68.9 µM; in test [6] it was 39.8 µM. For the same molecule, the TGI stood at 25 µM in test [7]; 28.4 µM in test [8]; 64.1 µM in test [9]; 36.9 µM in test [10]; 32.6 µM in test [11].

As for `O=C(Oc1ccccc1)c1cc2cc(CCl)ccc2oc1=O`, the TGI in test [1] is greater than 100 µM; in test [2], 24.6 µM; in test [3], greater than 100 µM; in test [4], greater than 100 µM; in test [5], 73.9 µM; in [6], 21.1 µM. Also, the TGI is 8.11 µM in test [7]; greater than 100 µM in test [8]; 67.4 µM in [9]; 28.7 µM in test [10]; greater than 100 µM in [11].

`C/C(=N\Nc1ccc([N+](=O)[O-])cc1[N+](=O)[O-])c1ccc2ccccc2n1`: the TGI is greater than 100 µM in test [1]; 55.7 µM in [2]; greater than 100 µM in test [3]; greater than 100 µM in test [4]; greater than 100 µM in test [5]; greater than 100 µM in [6]. The TGI in test [7], in test [8], in test [9], in [10] and in test [11] was greater than 100 µM throughout.

Take `CN1C(c2ccccc2)=CC(=O)C(O)=C(c2ccccc2)S1(=O)=O`: the TGI in test [1], in test [2], in test [3], in test [4], in test [5] and in [6] was greater than 100 µM each time. Also, the TGI in test [7], in test [8], in test [9], in [10] and in test [11] was greater than 100 µM in each case.

Turning to `CC(C)CCC1(O)O[C@H]2C[C@H]3[C@@H]4CCC5CC(=O)C=C[C@]5(C)[C@H]4CC[C@]3(C)[C@H]2[C@@H]1C` (some centres not stated), the TGI in test [1] worked out at 30.5 µM; in test [2] it was 3.8 µM; in [3], 19.3 µM; in test [4], 24.5 µM; in test [5], 28.2 µM; in [6], 26.6 µM. Besides, the TGI came out at 29.5 µM in test [7]; 23.4 µM in [8]; 28 µM in test [9]; 16 µM in test [10]; 27 µM in test [11].

Consider `NC1CC(=O)c2csc(Br)c21` (configuration not stated), for which the TGI was 33.6 µM in test [1]; 8.21 µM in test [2]; greater than 44.2 µM in test [3]; 32.9 µM in test [4]; 44.1 µM in test [5]; 32.2 µM in test [6]. Besides, the TGI in test [7] was 33.9 µM; in [8], 41.2 µM; in test [9], greater than 44.3 µM; in [10], 24.5 µM; in test [11] it was 28.4 µM.

For the molecule `O=C(O)CSCC(=O)Nc1ccc2cccc3c2c1CC3`, the TGI in test [1], in [2], in test [3], in [4], in test [5] and in test [6] was greater than 100 µM throughout. The TGI in [7], in test [8], in test [9], in [10] and in [11] was greater than 100 µM in each case.

Consider `CC(=O)C1=C(N=[N+]=[N-])c2cccc3cccc(c23)C1=O`, for which the TGI in test [1] stood at 65.8 µM; in test [2], 29.3 µM; in test [3] it was 30.8 µM; in test [4] it was 48.5 µM; in test [5], 75.2 µM; in test [6], 32.4 µM. Besides, the TGI in test [7] came to 33.5 µM; in test [8], 32 µM; in [9], 39.7 µM; in test [10], 42.8 µM; in test [11], 42.7 µM.

As for `CC(=O)Oc1ccc2c(c1)c1c(=O)oc(N(C)C)nc1n2Cc1ccccc1`, the TGI in test [1], in [2], in test [3], in test [4], in test [5] and in [6] was greater than 100 µM throughout. Moreover, the TGI in test [7], in test [8], in test [9], in test [10] and in test [11] was greater than 100 µM in each case.

As to `O=C(c1cc(Cl)cc(Cl)c1)N(C(=S)OC12CC3CC(CC(C3)C1)C2)c1ccccc1`, the TGI in [1] was greater than 100 µM; in test [2], 62.3 µM; in test [3], greater than 100 µM; in test [4] it was greater than 100 µM; in [5], greater than 100 µM; in test [6], greater than 100 µM. Also, the TGI in test [7], in test [8], in [9], in test [10] and in test [11] was greater than 100 µM throughout.

Consider `O=P(O)(O)C(O)/C=C/c1ccccc1` (configuration not stated), for which the TGI in [1], in test [2], in [3], in test [4], in test [5] and in [6] was greater than 100 µM throughout. Also, the TGI in test [7], in [8], in test [9], in [10] and in test [11] was greater than 100 µM each time.
